Columns and labels:
[1] = Ex-vivo continuous wave fluorescence imaging of caecum and lower large intestine after IV ICG; format: in vivo; details: rat, post-IV administration of aqueous ICG solution, 780 nm excitation, 830 nm detection
Method: ICG in powdered form was obtained from Sigma (St. Louis, Mo.). Solutions were made by diluting the appropriate amount of ICG in 10 mL of distilled water. Concentrations less than 1 mM were made by serial dilution of a 1 mM stock solution.
The animals were anesthetized with rat cocktail (xylazine; ketamine; acepromazine 1.5: 1.5: 0.5) at 0.8 mL/kg via intraperitoneal injection. A 21 gauge butterfly infusion set equipped with a stopcock and two syringes containing heparinized saline was placed into the lateral tail vein of the rat. Patency of the vein was checked prior to administration of the agent via the butterfly apparatus.
A simple noninvasive in vivo continuous wave fluorescence imaging apparatus was employed as described below. Light from a LaserMax Inc. laser diode of nominal wavelength 780 nm and nominal power of 40 mW was launched into a fiber optic bundle. A defocusing lens in position after the bundle expanded the beam such that most of the rat was illuminated. The laser power at the output of the bundle was approximately one half of the input power. […]
The above imaging system may also used to view and quantify ex-vivo organs and tissues. […] Blue is indicative of high fluorescence, and red is indicative of low fluorescence.

[2] = In vivo fluorescence time dependence at the ear after ICG bolus (blood clearance by the liver), normal vs partially hepatectomized rats; parameters: species or system rat
Method: ICG in powdered form was obtained from Sigma (St. Louis, Mo.). Solutions were made by diluting the appropriate amount of ICG in 10 mL of distilled water. Concentrations less than 1 mM were made by serial dilution of a 1 mM stock solution. For ICG fluorescence detection, a nominal 780 nm collimated solid state laser source was employed (LaserMax Inc. model No. LAS-300-780-5). The laser source was directed into the end of a 3.2 mm diameter glass fiber optic bundle (Oriel No. 77526). The other end of this laser delivery bundle was placed approximately 1 cm from the rat ear at an approximate 45° angle. A second similar fiber optic bundle for use as the fluorescence detection conduit was placed approximately 1 cm from the ear at an approximate 30° angle. The exit end of the detection fiber bundle was positioned at the focal length of a 20 mm focal length lens. […] A digital voltmeter monitored the output signal. […]
Female Fischer 344 rats weighing 173-195 g were used. […] The dye was subsequently administered via the indwelling catheter, and the clearance of the agent monitored. […]
To verify that the fluorescence decay curves were related to liver function, and to assess this methodology's feasibility to determine impaired liver function, the following experiment was done. […] A measurement of the time dependence of fluorescence at the ear pre- and post-bolus injection of the ICG solution was measured next. […]

[3] = Open-surgery fluorescence imaging of the cystic duct after IV fluorescein; format: in vivo; details: anesthetized pig, approximately 80 minutes post-IV administration of 6 mL of 20 mg/mL fluorescein in PBS
Method: FIG. 1 depicts green fluorescence from fluorescein traveling through a cystic duct in an anesthetized pig. The image was taken during open surgery, post-IV administration of 6 mL of a 20 mg/mL concentration of fluorescein in PBS.
The image was taken during open surgery, approximately 80 minutes post-IV administration of 6 mL of a 20 mg/mL concentration of fluorescein in PBS. The pig weighed about 82 pounds.

Row | fluorescence decay time, impaired liver function versus normal liver function ([2]; partially hepatectomized rats (33%-38% of liver ligated) vs normal rat, single exponential fit) | loss of initial fluorescence signal at the ear ([2]; rat, after about 15 minutes post-bolus injection of 500 mL of 1.007 mM ICG solution (FIG. 3)) | Structure (SMILES) | fluorescence of feces in ex-vivo intestine (hepatobiliary excretion) [1] | appearance of fluorescence in the cystic duct [3]
1 | almost an order of magnitude longer | approximately 90% | CC1(C)C(/C=C/C=C/C=C/C=C2\N(CCCCS(=O)(=O)[O-])c3ccc4ccccc4c3C2(C)C)=[N+](CCCCS(=O)(=O)[O-])c2ccc3ccccc3c21.[Na+] [ICG] | feces that fluoresce due to the ICG within | 
2 |  |  | O=C1OC2(c3ccc(O)cc3Oc3cc(O)ccc32)c2ccccc21 [fluorescein] |  | fluorescence from fluorescein traveling through the cystic duct
